Laboratory results published in publication PMC4801399, “Impact of a CXCL12/CXCR4 Antagonist in Bleomycin (BLM) Induced Pulmonary Fibrosis and Carbon Tetrachloride (CCl4) Induced Hepatic Fibrosis in Mice” (PLoS ONE, 2016).

Test system: BLM-induced pulmonary fibrosis
Assay: BLM-induced murine model of pulmonary fibrosis
Format: in vivo, CD-1 mice
Protocol: PF was induced in six-weeks old female CD-1 mice purchased from Harlan. Animals were randomly divided into three groups (n = 10/group): PBS plus acetate buffer control, BLM plus acetate buffer and BLM plus AMD070.
On day 0, mice were anaesthetized with isoflurane and PF was induced by BLM administration. Specifically, BLM (C103610, Fresenius Kabi Canada, 2U/kg) in 40 μL PBS or vehicle control (PBS) was administrated by non-surgical endotracheal instillation with sterile disposable plastic loading pipette tips. The next day, AMD070 (Shanghai Haoyuan Chemexpress Co., 400 μg/mouse in 200 μL 30 mM acetate buffer) or 200 μL of 30 mM acetate buffer (pH 5) was administrated via oral gavage (PO) with a 20G feeding needle. AMD070 or acetate buffer vehicle was administrated daily for 21 consecutive days. Animals were euthanized with avertin overdose on day 22.
Following perfusion with PBS, lungs were fixed in 4% paraformaldehyde at 4°C for 2 days. These were embedded in paraffin, sectioned at 1 mm apart and stained with hematoxylin-eosin (H&E) and Masson’s Trichrome stains. For quantitation of percent PF, entire lung and fibrotic areas were outlined. Percent fibrotic area was calculated by dividing fibrotic area (mm^2) by total lung area (mm^2) and multiplying by 100. For H&E stained slides, two histology slides/animal were selected from the central region of the lungs and analyzed whereas only one histology slide/animal was analyzed with Masson’s Trichrome stained slides. These analyses were performed with Image J and the analyst was blinded to sample identification.

[1] = BLM plus AMD070 400 μg/mouse PO daily 21 days, day 22, mean, n = 9

SMILES: NCCCCN(Cc1nc2ccccc2[nH]1)[C@H]1CCCc2cccnc21 [AMD070]
- lung fibrosis, Masson's Trichrome [1]: 10.5%
- lung inflammation, H & E stained lungs (percent surface area) [1]: 14.2%
- survival over the duration of the study (BLM plus AMD070 400 μg/mouse PO daily, 22 days, BLM plus acetate buffer 40%): 90%
